Data on 3 molecules can be found in patent US8114847B2, “Selective inhibitors of translesion DNA replication” (Case Western Reserve University, priority 2005, dated 2012).

The target in assay [1] is T1, gp43 exo+ (bacteriophage T4 DNA polymerase) (Enterobacteria phage T4, UniProt P04415).
T1 construct: made in house
T1 sequence (P04415 1-898): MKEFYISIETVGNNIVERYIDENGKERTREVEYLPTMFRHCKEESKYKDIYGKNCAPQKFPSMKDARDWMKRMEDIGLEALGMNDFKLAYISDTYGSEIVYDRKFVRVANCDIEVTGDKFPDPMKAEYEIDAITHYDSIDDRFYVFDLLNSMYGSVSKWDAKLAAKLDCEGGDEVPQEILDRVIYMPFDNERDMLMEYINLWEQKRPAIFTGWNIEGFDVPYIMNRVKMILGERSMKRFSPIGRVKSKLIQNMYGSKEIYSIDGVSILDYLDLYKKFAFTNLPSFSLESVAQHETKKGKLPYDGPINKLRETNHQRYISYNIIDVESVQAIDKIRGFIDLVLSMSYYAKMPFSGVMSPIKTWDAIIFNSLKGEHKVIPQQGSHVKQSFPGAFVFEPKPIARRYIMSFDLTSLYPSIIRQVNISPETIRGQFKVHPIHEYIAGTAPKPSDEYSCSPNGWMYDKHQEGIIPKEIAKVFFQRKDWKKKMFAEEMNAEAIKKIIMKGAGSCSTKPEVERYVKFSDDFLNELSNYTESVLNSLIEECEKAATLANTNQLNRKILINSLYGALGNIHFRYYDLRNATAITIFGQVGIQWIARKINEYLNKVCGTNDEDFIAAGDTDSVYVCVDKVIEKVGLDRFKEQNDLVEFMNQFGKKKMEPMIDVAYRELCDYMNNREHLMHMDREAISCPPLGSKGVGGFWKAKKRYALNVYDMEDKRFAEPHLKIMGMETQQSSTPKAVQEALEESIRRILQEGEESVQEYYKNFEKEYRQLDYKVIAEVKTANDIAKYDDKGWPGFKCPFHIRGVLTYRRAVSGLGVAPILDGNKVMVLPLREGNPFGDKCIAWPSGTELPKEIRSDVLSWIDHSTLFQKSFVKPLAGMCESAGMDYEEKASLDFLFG
The assay can be described thus: Pre-steady-state exonuclease assay (excision of dXMP from primer). It is filed as biochemical. To be noted: for kexo: single turnover, 1 μM gp43exo+.

In assay [2] the target is T1, gp43 exo+ (bacteriophage T4 DNA polymerase). Conditions: paired opposite T; cited from earlier work.
Assay [3] addresses T2, gp43exo− (bacteriophage T4 DNA polymerase) (Enterobacteria phage T4, UniProt P04415, D219A). The class given is biochemical. Conditions: 50 μM dXTP 30 s, then 1000 μM dGTP.
In assay [4] the target is T2, gp43exo− (bacteriophage T4 DNA polymerase). The assay can be described thus: biochemical. The class given is biochemical. To be noted: for inhibition of replication beyond an abasic site: 20 μM analogue, 500 μM dNTPs.
Assay [5] has the same target. The class given is biochemical. Conditions: 500 μM analogue; 10 μM dNTPs; unmodified 13/20-mer.
The target in assay [6] is T1, gp43 exo+ (bacteriophage T4 DNA polymerase). Kind of assay: Idle turnover measurements with KINSIM simulation. It is filed as biochemical. The method, then: DNA (13/20SP-mer or 13/20T-mer; 250 nM) was first preincubated with variable concentrations of 5-NITP (20-200 μM) or 5-PhITP (10-200 μM) in the presence of 30 μM dATP. Due to the nature of the DNA substrate (FIG. 1B), the insertion of dAMP opposite T at position 13 in the template maintains a usable primer template for the insertion of the nonnatural nucleotide opposite the abasic lesion (position 14). In all cases, the reaction was initiated through the addition of 1000 nM DNA gp43 exo^+. Five microliter aliquots of the reaction were quenched into tubes containing 5 μL of 200 mM EDTA at times ranging from 5 to 600 s. The quenched samples were processed as described above and product formation was analyzed using established protocols.
Simulations modeling the observed kinetic time courses for nucleotide insertion and excision were performed by mathematical analyses using KINSIM. A simplified mechanism depicted in FIG. 11 was employed that accounts for the kinetic parameters of interest. These minimally include KD values for each nucleotide, kpol values for their insertion, and kexo, which represents the hydrolytic rate constant. Both the starting reactant concentrations and rate constants were supplied for each step of the mechanism. In all cases, the rate constants were based upon either experimentally determined rate constants or published literature values. The simulated curves were then compared to those experimentally derived to judge how accurately each set of rate constants fit the experimental data. Adjustments to the rate constants were then made until the simulated time courses were nearly identical to the experimental time courses.
Idle turnover is a process in which the DNA polymerase incorporates a dNTP and then excises the inserted dNMP in the absence of the next required nucleotide triphosphate (FIG. 11). This activity provides a more accurate representation of in vivo conditions in which the polymerase should be bound and stalled at the sight of DNA damage. Idle turnover was quantified using a modified gel electrophoresis protocol that monitors the amount of extension (13-mer to 14-mer) and subsequent excision (14-mer to 13-mer) of the DNA as a function of time. All experiments were performed using single turnover reaction conditions to ensure that all DNA was bound with polymerase during the course of the reaction. Under these conditions, the rates in product formation reflect the kinetics of insertion and excision rather than enzyme dissociation from the mispair. In each experiment, the concentration of nonnatural nucleotide was varied from 20 to 200 μM. In addition, a low concentration of 30 μM dATP was used to allow for correct dNMP insertion at position 13-mer, which prevents complete degradation of DNA substrate.
Since single turnover reaction conditions were employed, kinetic steps reflecting enzyme dissociation and rebinding to product DNA are assumed to be negligible. Thus, the rate and amount of 14-mer produced are dependent upon four interrelated parameters. These include the kinetic dissociation constant (KD) for dXTP opposite the lesion (DNAn) (step 2), the rate constant for DNA extension (kpol) (step 3), the rate constant of exonuclease degradation (kexo) (step 5), and the kinetic dissociation constant (KD′) for dXTP opposite the next templating position (DNAn+1) (step 6). Although kpol is a complex function of kinetic rate constants, this value was simplified to combine the kinetic steps encompassing the conformational change prior to phosphoryl transfer, phosphoryl transfer, and the conformational change after phosphoryl transfer. Furthermore, translocation of the enzyme and pyrophosphate release (step 4) are assumed to be rapid.

The subject of assay [7] is bacteriophage T4 polymerase. Kind of assay: Calculated discrimination, toxicity index and therapeutic index. It is filed as biochemical. Conditions: for toxicity index (abasic DNA) / toxicity index (unmodified DNA): (kpol dNTP/kexo dXTP)(dXTP/dNTP)/(4D); for discrimination (unmodified DNA): ratio of catalytic efficiencies opposite templating nucleobase; for discrimination (abasic DNA): ratio of catalytic efficiencies, dATP versus dXTP.

Assay [8] deals with T2, gp43exo− (bacteriophage T4 DNA polymerase). Conditions: cited from earlier work.
For assay [9] the target is unchanged. Conditions: previously demonstrated, cited from earlier work.
The target is the same in assay [10]. Conditions: opposite an abasic site; previously determined values (Table 7 footnotes d, e, f not given); cited from earlier work.
Assay [11] shares this target. Kind of assay: biochemical. It is filed as biochemical.
Assay [12] has the same target. Kind of assay: biochemical. Conditions: for kpol: pseudo-first-order conditions.
Where [13] appears, read: idle turnover opposite an abasic site, computer simulation fit of time courses.

Structures are written as SMILES. Values joined by “and” are separate entries in the source; they are usually repeats but may differ in a detail not shown here. Equal values may be shown once. Read-outs that look alike come from different tables or passages of the source.

Take `Nc1ncnc2c1ncn2[C@H]1C[C@H](O)[C@@H](COP(=O)(O)O)O1` [dAMP]: the “rate constant for excision opposite the abasic site faster than opposite T” value in assay [1] (abasic site versus T) was around 40 fold. The kexo in assay [1] (template abasic site) is 28.5±1.1 s^−1 and ≈ 28 s^−1 and 28.5+/−1.1 s^−1; in assay [1] (template nucleoside thymine), 0.8 ± 0.1 s⁻¹. Also, the “kexo, published value” in assay [2] is 2 s⁻¹.
By IC50 is commonly meant the concentration needed to halve the response being measured. The term Kd denotes the equilibrium constant for the complex coming apart. Regarding `O=[N+]([O-])c1ccc2c(ccn2[C@H]2C[C@H](O)[C@@H](COP(=O)(O)OP(=O)(O)OP(=O)(O)O)O2)c1` [5-NITP, 5-nitro-1-indolyl-2′-deoxyribose-5′-triphosphate], the “extension beyond the mispair formed opposite an abasic site” value in assay [3] is listed as “cannot elongate beyond the 14-mer product”. Also, in [4], the “inhibition of replication beyond an abasic site” value is listed as “level of 14-mer product remains invariant”; the IC50 is 10 µM and ~10 µM. Also, the “inhibition of normal DNA synthesis” value in [5] is “little effect”. In addition, in assay [1] (template abasic site), the kexo is 9.9 ± 0.8 s⁻¹. In assay [1] (template nucleoside thymine), this molecule showed a kexo of 13.0 ± 1.4 s⁻¹. This molecule had a dissociation constant Kd in assay [6] (dXTP opposite the next templating position, computer simulation fit) of 10000 µM. In addition, in assay [6] (setting [13]), binding was characterised by a dissociation constant (Kd) of 20 µM; the kexo was 10 S^−1 and 10 ± 2 S^−1; the kpol was 100 S^−1 and 100 ± 10 S^−1. In assay [7], the therapeutic index was around 128, the “toxicity index (abasic DNA)” value was around 6, the “toxicity index (unmodified DNA)” value is recorded as 0.047 and the “discrimination (unmodified DNA)” value is around 53. In addition, the “discrimination (abasic DNA)” value in assay [7] is on record as 6.1×10^−4. Further, in assay [8], the dissociation constant Kd was 18 µM and ~10 µM; the “catalytic efficiency for insertion opposite an abasic site relative to natural nucleotide (dAMP/dATP), greater” value is listed as 1000 fold; the “incorporation opposite an abasic site favored compared to insertion opposite T (kpol)” value was 140 fold; the kpol was 126 ± 6 s⁻¹. For the same molecule, in assay [8], the kpol/KD was 7e+06 M⁻¹ s⁻¹. In addition, the Kd in assay [9] (independent of templating nucleobase) was around 20 µM. In addition, in assay [9] (opposite T), the kpol is around 0.9 s⁻¹. Besides, in assay [10], the Kd was 18 µM and 10 µM; the kpol was 126 s⁻¹ and 126 ± 7 s⁻¹.
By kcat is commonly meant the maximal rate divided by the concentration of active sites. Regarding `O=P(O)(O)OP(=O)(O)OP(=O)(O)OC[C@H]1O[C@@H](n2ccc3cc(-c4ccccc4)ccc32)C[C@@H]1O` [5-PhITP, 5-Phenyl-indole-2′-Deoxyribofuranoside 5′-Triphosphate], in [11], the “amplitude of the burst phase” value was 75 nM; the burst amplitude was 240 ± 6 nM and 220 ± 3 nM and 220 nM; the kcat turned out to be 2.2 s⁻¹; the kobs was 37.4 s⁻¹ and 38.4 s⁻¹ and ~38 s⁻¹ and 38.4 ± 2.1 s⁻¹ and 37.4 ± 1.4 s⁻¹. Moreover, in [11], the “kobs calculated from Michaelis-Menten equation” value is 14 s⁻¹; the kpol worked out at 53 ± 4 s⁻¹; the kpol/KD stood at 3.8e+06 M⁻¹ s⁻¹; the “observed rate constant of the burst phase (kobs)” value is 9.1 ± 2.1 s⁻¹ and 9 s⁻¹. This molecule also displayed a Kd in assay [11] (KD) of around 10 µM. The molecule also displayed a Kd in assay [12] (KD) of around 25 µM. In [12] (Template A), the kpol/KD is 4.0 × 10^3 M^−1S^−1 and the kpol came to 0.12 ± 0.01 s⁻¹. For the same molecule, in [12] (Template C), the kpol/KD is listed as 6.8 × 10^3 M^−1S^−1 and the kpol was found to be 0.19 ± 0.02 s⁻¹. Besides, in assay [12] (Template G), the kpol/KD is 21.7 × 10^3 M^−1S^−1 and the kpol is 0.26 ± 0.02 s⁻¹. In [12] (Template T), the kpol/KD is 6.4 × 10^3 M^−1S^−1 and the kpol is 0.16 ± 0.01 s⁻¹. In assay [3], the “extension beyond the mispair formed opposite an abasic site” value is “identical results are obtained”. In assay [4], the “inhibition of replication beyond an abasic site” value is on record as “Identical results are obtained”; the IC50 was 10 µM and ~10 µM. The “inhibition of normal DNA synthesis” value in assay [5] is recorded as “Nearly identical results are obtained”. Besides, in assay [6] (100 μM nucleotide, compared with 100 μM 5-NITP), the “stability of incorporation opposite the abasic site (idle turnover)” value was “more stably incorporated opposite the abasic site”. Moreover, in assay [6] (setting [13]), binding was characterised by a dissociation constant (Kd) of 20 ± 5 µM, the kexo is on record as 1.0 ± 0.1 S^−1 and the kpol is given as 50 ± 10 S^−1. Besides, in assay [7], the “toxicity index (abasic DNA)” value is on record as around 33; the “toxicity index (unmodified DNA)” value was 0.01-0.05; the “discrimination (unmodified DNA)” value is 460-2500; the “discrimination (abasic DNA)” value is 11.4×10^−5 and 11.4 × 10^−4.
